Measurements: patent US20070202165A1, “Method for a supplemental dietary composition having a multi-phase dissolution profile” (priority 2006, published 2007)
Entries after “also recorded” stand apart in the source; their conditions may differ.

What was measured:
Assay type in all cases: physicochemical
[1] = Kinetic dissolution experiment: samples filtered at 1 and 5 minutes; details: for weight of unfiltered sample: 1 g in 50 mL water, Whateman 41 filter
Experimental: In order to expand on the results of the aforenoted experiments, a kinetic experiment was conducted to examine the change in the dissolution rate over short time periods.
1 g of sample was added to 50 mL water in a flask with a magnetic stir bar on a stirrer set at constant speed. Separate samples were filtered at 1 and 5 minutes. The pre-weighed filter papers (Whateman 41, particle retention 20-25 μm) were allowed to dry and the amount of sample remaining on the filter paper was determined.

[2] = Solubility test with filtration: amount dissolved until saturated and dry powder remaining on filter paper; details: gravity filtration, filter paper dried
Experimental: A second experiment relating to fine-milling and potential increase in bioavailability was conducted. In order to test the capacity of fine-milling to improve the rate bioavailability of substances, a simple test was performed. The test was conceived to mimic various elements involved in the processes of oral administration of a nutritional supplement. The key parameters involved were rate of dissolution and solubility, as it is understood that an ingested nutrient must be dissolved or reduced to a bio-transportable size in order to be utilized biochemically by the body.
The rates of dissolution and solubility of regular common nutritional supplements were compared to fine-milled versions within a fixed time.
100 mL of water was added to a 250 mL beaker and a magnetic stirring bar was placed in the beaker. The beaker was placed on a magnetic stirrer and stirred with low speed. 1 g of a given supplemental dietary ingredient powder was added incrementally to the beaker with the stirring speed constant until the solution visually appeared saturated. […]
The ‘Fold Change’ represents the change in the amount of substance unable to pass through the filter as calculated by the amount of unfiltered regular substance divided by the amount of unfiltered fine-milled substance and represents the potential theoretical improvement in bioavailability.

[3] = Time to dissolve in water, estimated by visual inspection, regular vs fine-milled ingredients; details: for Time taken to dissolve: 100 mL water, magnetic stirring
Experimental: In order to determine the effect of fine-milling on the dissolution rate, initial testing was performed to examine the rate of dissolution of common supplemental dietary ingredients. For the purposes of this disclosure, the term “regular” as used herein makes reference to non-fine-milled particles. 100 mL of water was placed into a 250 mL beaker and a magnetic stirrer bar was added to the beaker. The beaker was then placed on a magnetic stirrer was set to constant speed. […] The time required to dissolve was estimated by visual inspection. Equal amounts of the fine-milled ingredients were then added to the water and the time required to dissolve was estimated by visual inspection.

CN(CC(=O)O)C(=N)N.O [Creatine Monohydrate]
Time to filter, fine-milled compared with regular samples (in words) ([1]; 1- and 5-minute intervals): consistently longer for the fine-milled samples
weight of unfiltered sample ([1]; Fine-milled, filtered at 1-minute interval, listed as Creatine monohydrate, Monohydrate): 0.33 g
weight of unfiltered sample ([1]; Fine-milled, filtered at 1-minute interval, listed as creatine, Monohydrate): 0.32 g
weight of unfiltered sample ([1]; Fine-milled, filtered at 5-minute interval): 0.27 g
weight of unfiltered sample ([1]; Regular, filtered at 1-minute interval, listed as Creatine monohydrate, Monohydrate): 0.32 g
weight of unfiltered sample ([1]; Regular, filtered at 1-minute interval, listed as creatine, Monohydrate): 0.33 g
weight of unfiltered sample ([1]; Regular, filtered at 5-minute interval): 0.40 g
Dry Powder On Filter ([2]; Powder type Fine-milled): 0.01 g
Dry Powder On Filter ([2]; Powder type Regular): 0.19 g
Time taken to dissolve ([3]; Powder type Fine-milled): <5 min
Time taken to dissolve ([3]; Powder type Regular (non-fine-milled)): <5 min
Dissolution of fine-milled compared with regular ingredient (in words) ([3]; fine-milled vs regular, Monohydrate): dissolved at the same rate in both the fine-milled and regular formats; also recorded: did not display a difference dependent on particle size
